Assays:
[1] = target: T1, mitochondrial respiratory chain Complex I; test: spectrophotometric rotenone-sensitive NADH-CoQ reductase activity in isolated MEF mitochondria; type: biochemical, Mus musculus
T1 construct: gene Mtnd1; multi-subunit complex in mitochondria isolated from MEF

[2] = tested on: T1, mitochondrial respiratory chain Complex I; test: spectrophotometric NADH-CoQ reductase activity in isolated MEF mitochondria, single concentration of […]; type: biochemical, Mus musculus

Structure (SMILES) | IC50 [1] [µM] | spectrophotometric NADH-CoQ reductase activity in isolated MEF mitochondria, sin [2] [mM]
CCc1cncnc1N1CCN(Cc2nc3cc(C(F)(F)F)ccc3[nH]2)CC1 [PF-4708671] | 5.2 | 
CN(C)C(=N)N=C(N)N [metformin] |  | 5
